Results as given in article PMC5967867, “An NMDAR positive and negative allosteric modulator series share a binding site and are interconverted by methyl groups” (eLife, 2018).

What was measured:
[1] = tested on: diheteromeric NMDARs; test: Two-electrode voltage-clamp recordings, statements across all diheteromeric NMDARs; assay type: cell-based, rat
Protocol: cDNAs for rat wild type NMDAR subunits GluN1-1a (GenBank U11418, U08261; hereafter GluN1 or GluN1a), GluN1-1b (U08263, hereafter GluN1b), GluN2A (D13211), GluN2B (U11419), GluN2C (M91563), and GluN2D (L31611, modified as described in [Monyer et al., 1994]) were provided by Drs. S. Heinemann (Salk Institute), S. Nakanishi (Kyoto University), and P. Seeburg (University of Heidelberg). Site-directed mutagenesis was conducted using the QuikChange kit (Agilent Technologies, Santa Clara, CA) following the recommended protocol. DNA sequencing was used to verify all mutations. The amino acid numbering system started with the initiating methionine as residue number one. For expression in Xenopus laevis oocytes, cDNA constructs were linearized by restriction enzymes, and subsequently used to synthesize in vitro cRNAs following the manufacturer’s protocol (mMessage mMachine, Ambion, ThermoFisher Scientific, Waltham, MA).
Xenopus laevis stage VI oocytes (Ecocyte Biosciences, Austin, TX) were injected as previously described ([Hansen et al., 2013]) 2–7 days prior to recording with cRNA encoding the NMDAR subunits and stored at 15°C in media containing (in mM) 88 NaCl, 2.4 NaHCO3, 1 KCl, 0.33 Ca(NO3)2, 0.41 CaCl2, 0.82 MgSO4, 5 Tris-HCl; pH was adjusted to 7.4 with NaOH and the solution supplemented with 1 U/mL penicillin, 0.1 mg/mL gentamicin sulfate, and 1 μg/mL streptomycin. Two-electrode voltage-clamp recordings were performed at room temperature (21–23°C) using different internal solutions for voltage and current electrodes (0.3 M and 3.0 M KCl, respectively). All extracellular solutions were made from a solution containing (in mM) 90 NaCl, 1 KCl, 10 HEPES, 0.5 BaCl2, 0.01 EDTA (pH 7.4 with NaOH). Experiments were performed using an eight port Modular Valve Positioner (Hamilton Company, Reno, NV) and controlled by custom software (Easy Oocyte, Emory University, Atlanta, GA)to exchange solutions. Oocyte currents were recorded at a holding potential of −40 mV using a two-electrode voltage-clamp amplifier (OC-725B or OC-725C, Warner Instruments, Hamden, CT). […]

In the case of `CCOC(=O)c1c(NC(=O)CC2SC(=N)NC2=O)sc2c1CCCC2` (stereo not shown) [EU1794-4, ethyl 2-(2-(2-imino-4-oxothiazolidin-5-yl)acetamido)-4,5,6,7-tetrahydrobenzo[b]thiophene-3-carboxylate], the melting point is reported as 163 °C (dec.), the “potency of (-) enantiomer relative to (+) enantiomer” value ([1]; inhibition, across subtypes) is reported as 3–10 fold and the “residual current at saturating levels” value ([1]; saturating EU1794-4) is reported as 30–60%. The saturated inhibition ([1]; saturating modulator and agonist, across NMDAR subtypes) was 40–70 % of control.
